According to US12172983B2, “EGFR inhibitors” (Blueprint Medicines Corporation, priority 2019, dated 2024):
pIC50: −log10 of the molar value.

Experiments:
EGFR (L858R T790M C797S) = target: T1, EGFR (L858R T790M C797S) (Homo sapiens, UniProt P00533, C797S/L858R/T790M); assay: Biochemical EGFR inhibition assay (Caliper mobility shift), EGFR LRTMCS mutant; settings: inhibitory activity against EGFR LRTMCS mutant; apparent IC50; read-out: Ext Enz LRTMCS
T1 construct: purchased SignalChem E10-122VG
Procedure, shortened: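 Kinase reactions at 25 °C run to 10–20% peptide phosphorylation, stopped with 35 mM EDTA. Phosphorylated product and substrate separated electrophoretically by mobility shift. Apparent IC50 from percent activity versus log compound concentration.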

[1] = target: T2, EGFR (D770_N771insNPG T790M) (Homo sapiens, UniProt P00533, INS770NPG/T790M); assay: Biochemical EGFR inhibition assay (mobility shift), EGFR D770_N771insNPG T790M; settings: inhibitory activity against EGFR_D770_N771insNPG/T790M mutant; apparent IC50; read-out: Enz EGFR_D770_N771insNPG/T790M
T2 construct: purchased SignalChem E10-132TG
Procedure: Inhibitory effects of the compounds of the disclosure were measured in biochemical assays that measure the phosphorylation activity of EGFR enzyme phosphorylates 2.5 micromolar 5-FAM-[…]-CONH2 peptide substrate (FL-Peptide 22, PerkinElmer, 760366) in the presence of adenosine-5′-triphosphate (ATP) and varying concentrations of the test compound. […] Reactions proceeded until between 10% to 20% total peptides were phosphorylated at room temperature (25° C.) and were terminated with 35 mM 2,2′,2″,2′″-(ethane-1,2-diyldinitrilo)tetraacetic acid (EDTA). EGFR enzymatic activity was monitored using the Perkin Elmer electrophoretic mobility shift technology platform (the Caliper mobility shift detection method) where the phosphorylated peptide (product) and substrate were electrophoretically separated and measured. Percent activity was plotted against log concentration of compound and points to generate an apparent IC50. The following enzyme forms of EGFR were examples that were used in these assays: • EGFR WT (SignalChem, E10-112G) • EGFR (L858R T790M C797S) (SignalChem, E10-122VG) • EGFR (d746-750) T790M C797S (SignalChem, E10-122UG) • EGFR L858R (SignalChem, E10-122BG) • EGFR (d746-750) (SignalChem, E10-122JG) • EGFR (D770_N771insNPG T790M) (SignalChem, E10-132TG) • EGFR (D770_N771insNPG) (SignalChem, E10-132GG)

[2] = tested on: phosphorylation of EGFR (Tyr1068) in NCI-H1975 cell line that harbors the EGFR L858R T790M mutations; assay: NCI-H1975 pEGFR AlphaLISA assay; assay type: cell-based; settings: Homo sapiens, NCI-H1975, inhibition of phosphorylation of mutant EGFR in NCI-H1975 cells; 4-5 hours incubation; read-out: Ext pEGFR H1975
Procedure, shortened: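 Phospho-EGFR Tyr1068 AlphaLISA readout: lysates taken from compound-treated H1975 cells (L858R T790M EGFR) after a 4-5 h exposure at 37 °C. Cells had adhered overnight beforehand. IC50 derived by plotting % pEGFR inhibition against log compound concentration.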

[3] = tested on: pEGFR_LR/TM/G796S mutant EGFR expressing Ba/F3 cells; assay: pEGFR_LR/TM/G796S AlphaLISA assay in Ba/F3 cells; assay type: cell-based; settings: Mus musculus, BaF3, 4 hrs incubation, geometric mean, read-out: Ext pEGFR_LR/TM/G796S GMean IC50
Procedure: Mutant EGFR expressing Ba/F3 cells were resuspended in fresh 10% FBS RPMI and plated at 1.0×10^6 cells/mL. On the next day, the cells were harvested and diluted in fresh medium at 1.25×10^6 cells/mL. 40 μL of cells were added to each well of a 384-well microplate (Corning 3764). In a clear 384-well polypropylene microplate, test compounds and DMSO were added. DMSO was a negative control and staurosporine was a positive control. The cell plate was placed in a humidified 37° C. incubator for 4 hrs. The cell plate was spun to pellet the cells and the media was removed. 10 μL of 1×AlphaLISA Lysis Buffer with 1× protease and phosphatase inhibitors was added to the cells and plate was shaken at 600 rpm for 30 min. The cell lysates were transferred from cell plate to a white opaque 384-well microplate (OptiPlate-384). 5 μL of acceptor mix was added to the cell lysate and the plate was shaken at 600 rpm for 10 min, gently tapped and sealed with foil. It was then incubated at RT for 1.5-2 hr. Under low light conditions, lx donor mix was prepared right prior to use. 5 μL of donor mix was added to the plate under subdued lighting or green filters. The plate was shaken at 600 rpm for 10 min, gently tapped and sealed with foil. It was then incubated overnight at RT in dark. After overnight incubation, the plate was read on an EnVision Multilabel Reader. All IC50 representative curves were plotted using GraphPad Prism (version 8.00 for Windows, GraphPad Software, San Diego California USA). The percentage of inhibition on EGFR phosphorylation was calculated following equation below: […]
An IC50 was calculated by fitting the curve using Nonliner fit with log(inhibitor) vs. response−Variable slope (four parameters) model.

T1 sequence (P00533 25-1210 T790M/C797S/L858R): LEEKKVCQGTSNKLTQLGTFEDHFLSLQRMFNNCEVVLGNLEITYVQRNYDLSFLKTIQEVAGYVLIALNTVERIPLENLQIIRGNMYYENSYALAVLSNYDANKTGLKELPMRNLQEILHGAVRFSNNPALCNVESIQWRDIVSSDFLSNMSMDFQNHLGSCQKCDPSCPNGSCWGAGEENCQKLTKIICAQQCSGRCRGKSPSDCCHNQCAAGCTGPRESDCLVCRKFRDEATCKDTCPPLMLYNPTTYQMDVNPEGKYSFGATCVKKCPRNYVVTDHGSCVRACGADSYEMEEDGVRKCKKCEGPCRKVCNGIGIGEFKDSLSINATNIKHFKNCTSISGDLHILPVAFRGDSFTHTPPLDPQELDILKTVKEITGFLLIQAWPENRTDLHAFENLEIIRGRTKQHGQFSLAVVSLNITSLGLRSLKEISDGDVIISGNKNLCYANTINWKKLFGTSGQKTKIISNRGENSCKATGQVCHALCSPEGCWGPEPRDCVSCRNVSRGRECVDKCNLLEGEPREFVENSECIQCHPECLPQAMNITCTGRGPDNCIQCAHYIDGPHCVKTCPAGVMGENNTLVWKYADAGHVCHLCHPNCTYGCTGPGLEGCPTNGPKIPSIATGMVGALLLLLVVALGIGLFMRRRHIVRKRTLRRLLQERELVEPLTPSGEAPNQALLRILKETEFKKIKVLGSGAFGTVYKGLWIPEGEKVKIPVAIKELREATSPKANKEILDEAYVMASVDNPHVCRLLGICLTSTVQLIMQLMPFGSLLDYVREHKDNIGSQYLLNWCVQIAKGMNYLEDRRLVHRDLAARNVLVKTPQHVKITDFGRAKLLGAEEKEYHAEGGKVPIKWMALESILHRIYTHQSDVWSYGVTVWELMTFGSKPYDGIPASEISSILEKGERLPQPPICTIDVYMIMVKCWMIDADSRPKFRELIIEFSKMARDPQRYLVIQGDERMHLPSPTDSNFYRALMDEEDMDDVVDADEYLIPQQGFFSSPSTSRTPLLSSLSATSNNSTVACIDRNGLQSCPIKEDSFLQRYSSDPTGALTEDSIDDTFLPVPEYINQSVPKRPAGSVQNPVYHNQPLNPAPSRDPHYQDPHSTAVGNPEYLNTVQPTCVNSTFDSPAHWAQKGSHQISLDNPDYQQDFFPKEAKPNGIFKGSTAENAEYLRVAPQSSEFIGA
T2 sequence (P00533 with tags, fused parts or gaps INS770NPG/T790M limits assumed): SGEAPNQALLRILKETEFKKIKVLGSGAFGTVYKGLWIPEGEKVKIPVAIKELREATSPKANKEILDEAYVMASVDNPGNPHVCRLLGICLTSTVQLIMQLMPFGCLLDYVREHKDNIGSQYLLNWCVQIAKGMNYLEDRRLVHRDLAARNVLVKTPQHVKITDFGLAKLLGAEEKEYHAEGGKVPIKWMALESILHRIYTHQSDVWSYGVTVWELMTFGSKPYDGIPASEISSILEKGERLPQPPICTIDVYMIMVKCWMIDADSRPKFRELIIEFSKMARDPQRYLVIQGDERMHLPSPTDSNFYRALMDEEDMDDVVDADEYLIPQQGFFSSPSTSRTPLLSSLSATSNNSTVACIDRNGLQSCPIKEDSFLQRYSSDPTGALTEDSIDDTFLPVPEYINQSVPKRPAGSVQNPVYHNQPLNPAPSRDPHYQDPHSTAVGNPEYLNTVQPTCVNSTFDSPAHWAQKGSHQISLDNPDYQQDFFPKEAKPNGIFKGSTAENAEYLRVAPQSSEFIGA

Row | SMILES | pIC50 (EGFR (L858R T790M C797S)) | pIC50 [1] | pIC50 [2] | pIC50 [3]
1 | [2H]C([2H])([2H])O[C@H]1CCN(c2nccc(Nc3cc4c(C(C)C)ccc(N5C[C@H](CS(C)(=O)=O)[C@H]5C)c4cn3)n2)C[C@H]1F (single isomer, unassigned) [Compound 283] |  |  | ≥ 8.00 | 7.00 to 7.70
2 | CC(C)c1cnc(N2CC(CS(C)(=O)=O)C2)c2cnc(Nc3ccnc(N4CCOCC4)n3)cc12 [Compound 2, 8-[3-(methanesulfonylmethyl)azetidin-1-yl]-N-[2-(morpholin-4-yl)pyrimidin-4-yl]-5-(propan-2-yl)-2,7-naphthyridin-3-amine] | ≥ 7.82 | 6.12 to 6.60 | 7.30 to 7.52 | 
3 | [2H]C([2H])([2H])O[C@@H]1CCN(c2nccc(Nc3cc4c(C(C)C)ncc(N5CC(CS(C)(=O)=O)C5)c4cn3)n2)C[C@@H]1F [Compound 265, N-{2-[(3S,4R)-3-fluoro-4-(^2H3)methoxypiperidin-1-yl]pyrimidin-4-yl}-8-[3-(methanesulfonylmethyl)azetidin-1-yl]-5-(propan-2-yl)-2,6-naphthyridin-3-amine] | ≥ 7.82 | 6.60 to 7.00 | ≥ 8.00 | 
4 | CCS(=O)(=O)CC1CN(c2ccc(C(C)C)c3cc(Nc4ccnc(N5CC[C@@H](OCCO)[C@@H](F)C5)n4)ncc23)C1 [Compound 292, 2-{[(3S,4R)-1-{4-[(8-{3-[(ethanesulfonyl)methyl]azetidin-1-yl}-5-(propan-2-yl)isoquinolin-3-yl)amino]pyrimidin-2-yl}-3-fluoropiperidin-4-yl]oxy}ethan-1-ol] | ≥ 7.82 |  | ≥ 8.00 | 

Second part, the compound after the results:

Row | pIC50 (EGFR (L858R T790M C797S)) | pIC50 [1] | pIC50 [2] | pIC50 [3] | SMILES
5 | ≥ 7.82 | 6.12 to 6.60 | 7.70 to 8.00 |  | CC(C)c1cnc(N2CC(CS(C)(=O)=O)C2)c2cnc(Nc3ccnc(N4C[C@@H](F)[C@@H](F)C4)n3)cc12 [Compound 7, N-{2-[cis-3,4-difluoropyrrolidin-1-yl]pyrimidin-4-yl}-8-[3-(methanesulfonylmethyl)azetidin-1-yl]-5-(propan-2-yl)-2,7-naphthyridin-3-amine]
6 |  |  | ≥ 8.00 | 7.00 to 7.70 | CC(C)c1ccc(N2C[C@H](CS(C)(=O)=O)[C@H]2C)c2cnc(Nc3ccnc(N4CC[C@@H](O)[C@@](C)(F)C4)n3)cc12 (single isomer, unassigned) [Compound 111]
7 | ≥ 7.82 |  | ≥ 8.00 | 6.12 to 6.60 | CC(C)c1ccc(N2C[C@H](CS(C)(=O)=O)[C@H]2C)c2cnc(Nc3ccnc(N4CC[C@](C)(O)[C@H](F)C4)n3)cc12 (single isomer, unassigned) [Compound 118]
8 |  |  | ≥ 8.00 | 7.00 to 7.70 | [2H]C([2H])([2H])O[C@@H]1CCN(c2nccc(Nc3cc4c(C(C)C)ccc(N5C[C@H](CS(C)(=O)=O)[C@H]5C)c4cn3)n2)C[C@@H]1F (single isomer, unassigned) [Compound 282]
9 | ≥ 7.82 |  | ≥ 8.00 | 6.12 to 6.60 | CC(C)c1ccc(N2C[C@H](CS(C)(=O)=O)[C@H]2C)c2cnc(Nc3ccnc(N4CC[C@@](C)(O)[C@@H](F)C4)n3)cc12 (single isomer, unassigned) [Compound 117]
10 |  |  | ≥ 8.00 | ≥ 7.70 | CC(C)c1ccc(N2CC(CS(C)(=O)=O)C2)c2cnc(Nc3ccnc(N4CC[C@@H](O)[C@@](C)(F)C4)n3)cc12 (single isomer, unassigned) [Compound 55]
11 | ≥ 7.82 | 7.00 to 7.70 | ≥ 8.00 |  | CC(C)c1cnc(N2C[C@@H](CS(C)(=O)=O)[C@@H]2C)c2cnc(Nc3ccnc(N4CC[C@@H](O)[C@@](C)(F)C4)n3)cc12 (single isomer, unassigned) [Compound 128]
